Experimental findings from patent US8629102B2, “3-hydroxyisothiazole 1-oxide derivatives” (Mochida Pharmaceutical Co., Ltd., priority 2011, dated 2014) are described below.

Some results are limits rather than exact numbers.

The target in this assay is T1, GPR40 of human origin (Homo sapiens, UniProt O14842).
T1 construct: expressed in transfected cells
In words: Agonist action on GPR40 of human origin (intracellular Ca2+ change). The format is cell-based. Particulars: CHO cell strain stably expressing GPR40 of human origin; change in Ca2+ concentration, fluorescent calcium indicator. The procedure, abridged:
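CHO cells stably expressing human GPR40, cultured overnight, then loaded 1 h with Calcium 4 dye plus probenecid in HEPES-buffered HBSS. Compound added in 20 mM HEPES-HBSS; intracellular Ca2+ change read by fluorescence, EC50 from dose-response of fluorescence change.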

T1 sequence (O14842 whole entry): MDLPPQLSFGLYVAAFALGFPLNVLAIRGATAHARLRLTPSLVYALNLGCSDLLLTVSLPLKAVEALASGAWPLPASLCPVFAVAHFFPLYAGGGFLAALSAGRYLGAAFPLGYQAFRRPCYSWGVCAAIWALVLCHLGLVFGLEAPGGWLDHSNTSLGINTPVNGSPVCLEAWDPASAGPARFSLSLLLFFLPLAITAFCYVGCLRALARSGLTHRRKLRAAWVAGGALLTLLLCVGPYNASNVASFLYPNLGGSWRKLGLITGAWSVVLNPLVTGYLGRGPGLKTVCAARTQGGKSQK

Broadly, the EC50 is the midpoint of the concentration-response curve. With `CCOc1ccc(-c2cccc3c2CC[C@H]3Oc2ccc(-c3cc(O)n[s+]3[O-])cc2)cc1F` (stereo partly drawn) [Example 44, 5-(4-(((R)-4-(4-ethoxy-3-fluorophenyl)-2,3-dihydro-1H-inden-1-yl)oxy)phenyl)-3-hydroxyisothiazole 1-oxide], the EC50 fell in the range of 0.3 to 3 µM. Consider `Cc1cncc(-c2cccc3c2CC[C@H]3Oc2ccc(-c3cc(O)n[s+]3[O-])cc2)c1` (stereo partly drawn) [Example 72, 5-(4-(((R)-4-(5-methylpyridin-3-yl)-2,3-dihydro-1H-inden-1-yl)oxy)phenyl)-3-hydroxyisothiazole 1-oxide], for which the EC50 was under 0.3 µM. In the case of `Cc1cccc(Oc2cccc3c2OCC3Oc2ccc(-c3cc(O)n[s+]3[O-])cc2)c1` (centres unmarked) [Example 155, 3-hydroxy-5-(4-((7-(m-tolyloxy)-2,3-dihydrobenzofuran-3-yl)oxy)phenyl)isothiazole 1-oxide] it was under 0.3 µM; in that of `CCc1ccc(-c2cccc3c2CC[C@H]3Oc2ccc(-c3cc(O)n[s+]3[O-])cc2)cc1` (stereo partly drawn) [Example 20, 5-(4-(((R)-4-(4-ethylphenyl)-2,3-dihydro-1H-inden-1-yl)oxy)phenyl)-3-hydroxyisothiazole 1-oxide], 0.3 to 3 µM; in that of `[O-][s+]1nc(O)cc1-c1ccc(O[C@@H]2CCc3c(-c4ccc(Cl)nc4)cccc32)cc1` (stereo partly drawn) [Example 74, 5-(4-(((R)-4-(6-chloropyridin-3-yl)-2,3-dihydro-1H-inden-1-yl)oxy)phenyl)-3-hydroxyisothiazole 1-oxide], under 0.3 µM. On to `NC(=O)c1ccc(Oc2cccc3c2CC[C@H]3Oc2ccc(-c3cc(O)n[s+]3[O-])cc2)cc1` (stereo partly drawn) [Example 129, 4-(((1R)-1-(4-(3-hydroxy-1-oxidoisothiazol-5-yl)phenoxy)-2,3-dihydro-1H-inden-4-yl)oxy)benzamide], for which the EC50 was under 0.3 µM. On to `CCOc1cc(Cl)ccc1-c1cccc2c1CC[C@H]2Oc1ccc(-c2cc(O)n[s+]2[O-])cc1` (stereo partly drawn) [Example 18, 5-(4-(((R)-4-(4-chloro-2-ethoxyphenyl)-2,3-dihydro-1H-inden-1-yl)oxy)phenyl)-3-hydroxyisothiazole 1-oxide], for which the EC50 was 0.3 to 3 µM.

As to `N#Cc1ccc(Oc2cccc3c2CC[C@H]3Oc2ccc(-c3cc(O)n[s+]3[O-])cc2)nc1` (stereo partly drawn) [Example 118, 6-(((1R)-1-(4-(3-hydroxy-1-oxidoisothiazol-5-yl)phenoxy)-2,3-dihydro-1H-inden-4-yl)oxy)nicotinonitrile], the concentration giving a half-maximal response (EC50) is under 0.3 µM. For the molecule `CCOCCOc1ccc(Oc2cccc3c2CC[C@H]3Oc2ccc(-c3cc(O)n[s+]3[O-])cc2)c(C)n1` (stereo partly drawn) [Example 102, 5-(4-(((R)-4-((6-(2-ethoxyethoxy)-2-methylpyridin-3-yl)oxy)-2,3-dihydro-1H-inden-1-yl)oxy)phenyl)-3-hydroxyisothiazole 1-oxide], the EC50 was under 0.3 µM. On to `Cc1ccc(-c2cccc3c2CC[C@H]3Oc2ccc(-c3cc(O)n[s+]3[O-])cc2)cn1` (stereo partly drawn) [Example 71, 5-(4-(((R)-4-(6-methylpyridin-3-yl)-2,3-dihydro-1H-inden-1-yl)oxy)phenyl)-3-hydroxyisothiazole 1-oxide], for which the EC50 is under 0.3 µM. On to `[O-][s+]1nc(O)cc1-c1ccc(O[C@@H]2CCc3c(-c4cccc5ccccc45)cccc32)cc1` (single isomer, unassigned) [Example 35], for which the EC50 was under 0.3 µM. Consider `Cc1cc(F)ccc1-c1cccc2c1CC[C@H]2Oc1ccc(-c2cc(O)n[s+]2[O-])cc1` (stereo partly drawn) [Example 39, 5-(4-(((R)-4-(4-fluoro-2-methylphenyl)-2,3-dihydro-1H-inden-1-yl)oxy)phenyl)-3-hydroxyisothiazole 1-oxide], for which the EC50 is under 0.3 µM. `CC(C)c1ccccc1-c1cccc2c1CC[C@H]2Oc1ccc(-c2cc(O)n[s+]2[O-])cc1` (stereo partly drawn) [Example 34, 5-(4-(((R)-4-(2-isopropylphenyl)-2,3-dihydro-1H-inden-1-yl)oxy)phenyl)-3-hydroxyisothiazole 1-oxide]: the EC50 lay within 0.3 to 3 µM. `[O-][s+]1nc(O)cc1-c1ccc(O[C@@H]2CCc3c(-c4cc(F)ccc4OCc4ccccc4)cccc32)cc1` (stereo partly drawn) [Example 62, 5-(4-(((R)-4-(2-benzyloxy-5-fluorophenyl)-2,3-dihydro-1H-inden-1-yl)oxy)phenyl)-3-hydroxyisothiazole 1-oxide]: the EC50 is 0.3 to 3 µM. The figure for `Cc1ccc(-c2cccc3c2CC[C@H]3Oc2ccc(-c3cc(O)n[s+]3[O-])cc2)cc1F` (stereo partly drawn) [Example 13, 5-(4-(((R)-4-(3-fluoro-4-methylphenyl)-2,3-dihydro-1H-inden-1-yl)oxy)phenyl)-3-hydroxyisothiazole 1-oxide] is under 0.3 µM. In the case of `[O-][s+]1nc(O)cc1-c1ccc(O[C@@H]2CCc3c(-c4cccc5c4oc4ccccc45)cccc32)cc1` (single isomer, unassigned) [Example 80] it was under 0.3 µM.

Consider `Cc1ccc(F)cc1-c1cccc2c1CC[C@H]2Oc1ccc(-c2cc(O)n[s+]2[O-])cc1` (stereo partly drawn) [Example 41, 5-(4-(((R)-4-(5-fluoro-2-methylphenyl)-2,3-dihydro-1H-inden-1-yl)oxy)phenyl)-3-hydroxyisothiazole 1-oxide], for which the EC50 was under 0.3 µM.
